Reference: ChEMBL document CHEMBL4321874 (J Med Chem, 2020)

Tests used:
[1] = test system: COLO 205; assay: Antiproliferative activity against human COLO205 cells assessed as reduction in cell growth after 3 days by CellTiter-Glo luminescence assay; assay type: functional, cell-based; settings: COLO 205, 72 h
[2] = biological target: CDK8/Cyclin C (Homo sapiens, UniProt P49336); assay: Inhibition of kinase tracer 236 binding to recombinant full-length human His-tagged CDK8/CyclinC expressed in baculovirus expression system by Lanthascreen Eu kinase binding assay
[3] = biological target: T1, Cell division cycle 7-related protein kinase (Homo sapiens, UniProt O00311); assay: Inhibition of ATP-specific reporter probe binding to CDC7 (unknown origin) assessed as equilibrium dissociation constant incubated for 60 mins by proteros reporter displacement assay
[4] = AUC(0 to 8 hrs) in mouse at 10 mg/kg, po dosed via cassette dosing; assay type: ADME, organism-based; design: time < 6 hr, dose 10 mg/kg, route oral; settings: in vivo
[5] = biological target: Rho-associated protein kinase 1 (Homo sapiens, UniProt Q13464); assay: Inhibition of N-terminal GST-tagged human ROCK1 catalytic domain (1 to 477 residues) expressed in baculovirus expression system using biotin-STK-substrate 2 as substrate preincubated with enzyme for 5 mins followed by ATP addition and measured after 2 hrs by TR-FRET assay
[6] = biological target: Death-associated protein kinase 1 (Homo sapiens, UniProt P53355); assay: Inhibition of recombinant human N-terminal GST-tagged DAPK1 catalytic domain (1 to 363 residues) expressed in baculovirus expression system by Adapta kinase assay
[7] = biological target: Dual specificity protein kinase CLK1 (Homo sapiens, UniProt P49759); assay: Inhibition of recombinant human GST-tagged CLK1 catalytic domain (129 to 484 residues) expressed in Escherichia coli by Z'-LYTE assay
[8] = biological target: Dual specificity tyrosine-phosphorylation-regulated kinase 1A (Homo sapiens, UniProt Q13627); assay: Inhibition of recombinant full-length human GST-tagged DYRK1A expressed in baculovirus expression system by Z'-LYTE assay
[9] = biological target: T1, Cell division cycle 7-related protein kinase; assay: Inhibition of CDC7 in human HeLa cells assessed as inhibition of MCM2 phosphorylation at Ser40 residue in human HeLa cells after 7 hrs by Western blot analysis; assay type: cell-based
[10] = biological target: T2, CDC7/DBF4 (Cell division cycle 7-related protein kinase/Activator of S phase kinase) (Homo sapiens, UniProt O00311); assay: Inhibition of N-terminal GST-fused full-length human CDC7 (1 to 574 end residues)/DBF4 (1 to 674 residues) expressed in baculovirus expression system using MCM2 as substrate in presence of 50 uM ATP by HTRF transcreener ADP assay
[11] = test system: COLO 205; assay: Antitumour activity against human COLO205 cells xenografted in Balb/c mouse assessed as inhibition of tumor growth at 50 to 100 mg/kg, po administered BID for 14 days and measured every 2 to 3 days relative to untreated control; assay type: functional
[12] = Toxicity in BALB/c mouse xenografted with human COLO205 cells assessed as effect on body weight at 50 to 100 mg/kg , po adminstered BID for 14 days and measured every 2 to 3 days; assay type: organism-based; settings: in vivo
[13] = biological target: Myotonin-protein kinase (Homo sapiens, UniProt Q09013); assay: Inhibition of kinase tracer 236 binding to recombinant full-length human GST-tagged DMPK expressed in baculovirus expression system by Lanthascreen Eu kinase binding assay
[14] = biological target: Homeodomain-interacting protein kinase 4 (Homo sapiens, UniProt Q8NE63); assay: Inhibition of recombinant full-length human N-terminal GST-tagged HIPK4 expressed in baculovirus expression system by Z'-LYTE assay
[15] = test system: Mus musculus; assay: In vivo inhibition of CDC7 in BALB/c mouse xenografted with human COLO205 cells assessed as reduction in MCM2 phosphorylation at Ser40/41 residue in tumor at 100 mg/kg, po after 4 hrs by Western blot analysis; assay type: functional; settings: COLO 205, po
[16] = Cmax in mouse at 10 mg/kg, po dosed via cassette dosing; assay type: ADME, organism-based; design: dose 10 mg/kg, route oral; settings: in vivo
[17] = biological target: T2, CDC7/DBF4 (Cell division cycle 7-related protein kinase/Activator of S phase kinase); assay: Inhibition of N-terminal GST-fused full-length human CDC7 (1 to 574 end residues)/DBF4 (1 to 674 residues) expressed in baculovirus expression system using MCM2 as substrate preincubated with enzyme for 10 mins prior to 1 uM ATP addition by HTRF transcreener ADP assay
[18] = biological target: Cyclin-dependent kinase 2/cyclin E1 (Homo sapiens, UniProt P24941); assay: Inhibition of N-terminal GST-tagged full-length human CDK2 (1 to 298 residues)/Cyclin E (1 to 410 residues) expressed in baculovirus expression system using histone H1 as susbtrate after 90 mins by Kinase-Glo luminescence assay
[19] = biological target: Dual specificity tyrosine-phosphorylation-regulated kinase 1B (Homo sapiens, UniProt Q9Y463); assay: Inhibition of recombinant full-length human GST-tagged DYRK1B expressed in baculovirus expression system by Z'-LYTE assay
[20] = biological target: T2, CDC7/DBF4 (Cell division cycle 7-related protein kinase/Activator of S phase kinase); assay: Inhibition of N-terminal GST-fused full-length human CDC7 (1 to 574 end residues)/DBF4 (1 to 674 residues) expressed in baculovirus expression system using MCM2 as substrate preincubated with enzyme for 60 mins prior to 50 uM ATP addition by HTRF transcreener ADP assay
[21] = Drug metabolism assessed as (4bS)-2-(3-Methyl-1H-pyrazol-4-yl)-5,6,7,8-tetrahydropyrido-[1',2':3,4]imidazo[1,5-a]thieno[3,2-d]pyrimidin-12(4bH)-one formaldehyde adduct formation by measuring retention time at 5 nmol after 30 mins in presence of excess formaldehyde by QTOF-UPLC analysis; assay type: physicochemical; settings: 0.5 h

`Cc1n[nH]cc1-c1cc2nc([C@@H]3CCCCN3)[nH]c(=O)c2s1.Cl.Cl` showed an EC50 [1] of 130 nM, an IC50 [2] of 351 nM and a Kd [3] of 1.96 nM. For the same compound, the AUC(0-t) at 6 h [4] was 1350 ng·h/mL, the IC50 [5] was 420 nM and the IC50 [6] was 203 nM. It also gave an IC50 [7] of 310 nM, an IC50 [8] of 59 nM and an IC50 [9] of 36 nM. The IC50 [10] was 120 nM, the T/C [11] was 6% and the Activity [12] was “Non-Toxic”. It also gave an IC50 [13] of 64.6 nM, an IC50 [14] of 176 nM and an inhibition in vivo at 100 mg/kg [15] of 72%. For the same compound, the Cmax [16] was 978 ng/mL, the IC50 [17] was 0.44 nM and the IC50 [18] was 6500 nM. For the same compound, the IC50 [19] was 78.6 nM and the IC50 [20] was 0.41 nM.

In the case of `Cc1n[nH]cc1-c1cc2nc([C@@H]3CCCCN3)[nH]c(=O)c2s1`, the Retention_time [21] is reported as 4.31 min.
